Test results: patent US11932658B2 (BRISTOL-MYERS SQUIBB COMPANY, priority 2016, dated 2024)

Target: T1, PAR4 (Homo sapiens, UniProt Q96RI0)
T1 construct: expressed in transfected cells; host or cells: HEK293 PAR4 Clone 1.2A (BMS Arctic ID 383940)
T1 sequence (Q96RI0 18-385): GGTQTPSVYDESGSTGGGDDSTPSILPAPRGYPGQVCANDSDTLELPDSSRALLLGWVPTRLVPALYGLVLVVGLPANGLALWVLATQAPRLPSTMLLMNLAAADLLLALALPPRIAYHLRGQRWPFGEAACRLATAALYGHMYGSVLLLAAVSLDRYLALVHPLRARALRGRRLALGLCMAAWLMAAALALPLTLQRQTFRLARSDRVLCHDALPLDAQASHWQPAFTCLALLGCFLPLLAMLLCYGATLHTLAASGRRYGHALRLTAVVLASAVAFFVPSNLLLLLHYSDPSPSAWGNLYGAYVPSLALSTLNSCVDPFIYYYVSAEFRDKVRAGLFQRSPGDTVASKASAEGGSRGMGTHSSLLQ
Test: PAR4 FLIPR assay (antagonism of agonist peptide-induced calcium mobilization)
Format: cell-based
Summary of the method: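 Antagonism was taken as block of calcium mobilization evoked by the agonist peptide H-Ala-Phe(4-F)-Pro-Gly-Trp-Leu-Val-Lys-Asn-[…]-NH2, added after 30 min room-temperature compound preincubation in dye-loaded PAR4-transfected HEK293 cells (endogenous PAR1). Fluorescence was read on FDSS, with compound addition alone used as the agonist counter-screen; values come from 11-point concentration-response curves.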

Row | Compound | IC50 [nM]
1 | COc1cnc2c(-c3nc4c(C)cc5c(c4s3)OCC(COC(=O)Nc3ccc(-n4cnc(C)n4)nc3)O5)cc(C)cc2n1 (centres unmarked) [Example 130, (2-(2-methoxy-7-methylquinoxalin-5-yl)-4-methyl-7,8-dihydro-[1,4]dioxino[2′,3′:3,4]benzo[1,2-d]thiazol-7-yl)methyl (6-(3-methyl-1H-1,2,4-triazol-1-yl)pyridin-3-yl)carbamate] | 1.5
2 | COc1cnc2c(-c3nc4c(C)cc5c(c4s3)OCC(COC(=O)Nc3ccc(C(F)(F)F)nc3)O5)cc(C)cc2n1 (centres unmarked) [Example 131, (2-(2-methoxy-7-methylquinoxalin-5-yl)-4-methyl-7,8-dihydro-[1,4]dioxino[2′,3′:3,4]benzo[1,2-d]thiazol-7-yl)methyl (6-(trifluoromethyl)pyridin-3-yl)carbamate] | 2
3 | COc1cnc2c(-c3nc4c(C)cc5c(c4s3)OCC(COC(=O)Nc3cncc(Cl)c3)O5)cc(C)cc2n1 (centres unmarked) [Example 132, (2-(2-methoxy-7-methylquinoxalin-5-yl)-4-methyl-7,8-dihydro-[1,4]dioxino[2′,3′:3,4]benzo[1,2-d]thiazol-7-yl)methyl (5-chloropyridin-3-yl)carbamate] | 3.9
4 | CCOc1ccc(NC(=O)OCC2COc3c(cc(C)c4nc(-c5cc(C)cc6nc(OC)cnc56)sc34)O2)cn1 (centres unmarked) [Example 133, (2-(2-methoxy-7-methylquinoxalin-5-yl)-4-methyl-7,8-dihydro-[1,4]dioxino[2′,3′:3,4]benzo[1,2-d]thiazol-7-yl)methyl (6-ethoxypyridin-3-yl)carbamate] | 150
5 | COC(=O)c1cc(NC(=O)OCC2COc3c(cc(C)c4nc(-c5cc(C)cc6nc(OC)cnc56)sc34)O2)ccn1 (centres unmarked) [Example 134, methyl 4-((((2-(2-methoxy-7-methylquinoxalin-5-yl)-4-methyl-7,8-dihydro-[1,4]dioxino[2′,3′:3,4]benzo[1,2-d]thiazol-7-yl)methoxy)carbonyl)amino) picolinate] | 3.3
6 | COc1cnc2c(-c3nc4c(C)cc5c(c4s3)OCC(COC(=O)Nc3cncc(C(F)(F)F)c3)O5)cc(C)cc2n1 (centres unmarked) [Example 135] | 1.4
7 | COc1cnc2c(-c3nc4c(C)cc5c(c4s3)OCC(COC(=O)Nc3ccc(N4CCN(C(=O)OC(C)(C)C)CC4)nc3)O5)cc(C)cc2n1 (centres unmarked) [Example 136, tert-butyl 4-(5-((((2-(2-methoxy-7-methylquinoxalin-5-yl)-4-methyl-7,8-dihydro-[1,4]dioxino[2′,3′:3,4]benzo[1,2-d]thiazol-7-yl)methoxy)carbonyl)amino)pyridin-2-yl) piperazine-1-carboxylate] | 210
8 | COc1cnc2c(-c3nc4c(C)cc5c(c4s3)OCC(COC(=O)Nc3ccc(N4CCCC4)nc3)O5)cc(C)cc2n1 (centres unmarked) [Example 137, (2-(2-methoxy-7-methylquinoxalin-5-yl)-4-methyl-7,8-dihydro-[1,4]dioxino[2′,3′:3,4]benzo[1,2-d]thiazol-7-yl)methyl (6-(pyrrolidin-1-yl)pyridin-3-yl)carbamate] | 6.1
9 | COC(=O)c1cncc(NC(=O)OCC2COc3c(cc(C)c4nc(-c5cc(C)cc6nc(OC)cnc56)sc34)O2)c1 (centres unmarked) [Example 138, methyl 5-((((2-(2-methoxy-7-methylquinoxalin-5-yl)-4-methyl-7,8-dihydro-[1,4]dioxino[2′,3′:3,4]benzo[1,2-d]thiazol-7-yl)methoxy)carbonyl)amino)nicotinate] | 3.4
10 | COc1cnc2c(-c3nc4c(C)cc5c(c4s3)OCC(COC(=O)Nc3cnc4c(c3)CN(C(=O)OC(C)(C)C)CC4)O5)cc(C)cc2n1 (centres unmarked) [Example 139, tert-butyl 3-((((2-(2-methoxy-7-methylquinoxalin-5-yl)-4-methyl-7,8-dihydro-[1,4]dioxino[2′,3′:3,4]benzo[1,2-d]thiazol-7-yl)methoxy)carbonyl)amino)-7,8-dihydro-1,6-naphthyridine-6(5H)-carboxylate] | 2.1
11 | COc1cnc2c(-c3nc4c(C)cc5c(c4s3)OCC(COC(=O)Nc3ccc(NC(C)=O)nc3)O5)cc(C)cc2n1 (centres unmarked) [Example 140, (2-(2-methoxy-7-methylquinoxalin-5-yl)-4-methyl-7,8-dihydro-[1,4]dioxino[2′,3′:3,4]benzo[1,2-d]thiazol-7-yl)methyl (6-acetamidopyridin-3-yl)carbamate] | 230
12 | COc1cnc2c(-c3nc4c(C)cc5c(c4s3)OCC(COC(=O)Nc3cnc4[nH]ccc4c3)O5)cc(C)cc2n1 (centres unmarked) [Example 142, (2-(2-methoxy-7-methylquinoxalin-5-yl)-4-methyl-7,8-dihydro-[1,4]dioxino[2′,3′:3,4]benzo[1,2-d]thiazol-7-yl)methyl 1H-pyrrolo[2,3-b]pyridin-5-ylcarbamate] | 2.9
13 | COCc1cnc2c(-c3nc4cc5c(cc4s3)OCO5)cc(C)cc2n1 [Example 143, 6-(2-(methoxymethyl)-7-methylquinoxalin-5-yl)-[1,3]dioxolo[4′,5′:4,5]benzo[1,2-d]thiazole] | 5.5
14 | COc1cnc2c(-c3nc4cc(F)c5c(c4s3)C[C@@H](CO)O5)cc(C)cc2n1 [Example 146, (S)-(5-fluoro-2-(2-methoxy-7-methylquinoxalin-5-yl)-7,8-dihydrobenzofuro[5,4-d]thiazol-7-yl)methanol] | 1.1
15 | COc1cnc2c(-c3nc4c(Cl)cc5c(c4s3)CC(COC(=O)Nc3ccc(C)nc3)O5)cc(CO)cc2n1 (centres unmarked) [Example 148, (4-chloro-2-(7-(hydroxymethyl)-2-methoxyquinoxalin-5-yl)-7,8-dihydrobenzofuro[5,4-d]thiazol-7-yl)methyl (6-methylpyridin-3-yl)carbamate] | 0.7
16 | CCOc1cnc2c(-c3nc4cc(F)c5c(c4s3)C[C@@H](CO)O5)cc(C)cc2n1 [Example 152, (S)-(2-(2-ethoxy-7-methylquinoxalin-5-yl)-5-fluoro-7,8-dihydrobenzofuro[5,4-d]thiazol-7-yl)methanol] | 11

The next lines start with the values.

Row | IC50 [nM] | Compound
17 | 170 | COc1cnc2c(-c3nc4c(C)cc5c(c4s3)OCC(COC(=O)Nc3ccc(N)nc3)O5)cc(C)cc2n1 (centres unmarked) [Example 141, (2-(2-methoxy-7-methylquinoxalin-5-yl)-4-methyl-7,8-dihydro-[1,4]dioxino[2′,3′:3,4]benzo[1,2-d]thiazol-7-yl)methyl (6-aminopyridin-3-yl)carbamate]
18 | 1.2 | COc1cnc2c(-c3nc4ccc5c(c4s3)C[C@H](COC(=O)Nc3cnc(C)nc3)O5)cc(C)cc2n1 [Example 144, (R)-(2-(2-methoxy-7-methylquinoxalin-5-yl)-7,8-dihydrobenzofuro[5,4-d]thiazol-7-yl)me thyl (2-methylpyrimidin-5-yl)carbamate]
19 | 1.8 | COc1cnc2c(-c3nc4cc(F)c5c(c4s3)C[C@H](COC(=O)Nc3cnc(C)nc3)O5)cc(C)cc2n1 [Example 145, (R)-(5-fluoro-2-(2-methoxy-7-methylquinoxalin-5-yl)-7,8-dihydrobenzofuro[5,4-d]thiazo 1-7-yl)methyl (2-methylpyrimidin-5-yl)carbamate]
20 | 1.5 | COc1cnc2c(-c3nc4ccc5c(c4s3)C[C@@H](CO)O5)cc(C)cc2n1 [Example 149, (S)-(2-(2-methoxy-7-methylquinoxalin-5-yl)-7,8-dihydrobenzofuro[5,4-d]thiazol-7-yl)me thanol]
21 | 5.4 | COc1cnc2c(-c3nc4ccc5c(c4s3)C[C@@H](COC(=O)Nc3cnc(C)nc3)O5)cc(C)cc2n1 [Example 150, (S)-(2-(2-methoxy-7-methylquinoxalin-5-yl)-7,8-dihydrobenzofuro[5,4-d]thiazol-7-yl)me thyl (2-methylpyrimidin-5-yl)carbamate]
22 | 3.9 | COc1cnc2c(-c3nc4cc(F)c5c(c4s3)C[C@@H](COC(=O)Nc3cnc(C)nc3)O5)cc(C)cc2n1 [Example 151, (S)-(5-fluoro-2-(2-methoxy-7-methylquinoxalin-5-yl)-7,8-dihydrobenzofuro[5,4-d]thiazol-7-yl)methyl (2-methylpyrimidin-5-yl)carbamate]
23 | 2.4 | CCOc1cnc2c(-c3nc4cc(F)c5c(c4s3)C[C@H](COC(=O)Nc3cnc(C)nc3)O5)cc(C)cc2n1 [Example 153, (R)-(2-(2-ethoxy-7-methylquinoxalin-5-yl)-5-fluoro-7,8-dihydrobenzofuro[5,4-d]thiazol-7-yl)methyl (2-methylpyrimidin-5-yl)carbamate]
24 | 6.3 | COc1cnc2c(-c3nc4cc(F)c5c(c4s3)C[C@H](COC(=O)Nc3cncc(C#N)c3)O5)cc(C)cc2n1 [Example 154, (R)-(5-fluoro-2-(2-methoxy-7-methylquinoxalin-5-yl)-7,8-dihydrobenzofuro[5,4-d]thiazol-7-yl)methyl (5-cyanopyridin-3-yl)carbamate]
25 | 13 | COc1cnc2c(-c3nc4cc(F)c5c(c4s3)C[C@H](COC(=O)Nc3cnc(CCO)nc3)O5)cc(C)cc2n1 [Example 155, (R)-(5-fluoro-2-(2-methoxy-7-methylquinoxalin-5-yl)-7,8-dihydrobenzofuro[5,4-d]thiazo 1-7-yl)methyl (2-(2-hydroxyethyl)pyrimidin-5-yl)carbamate]
26 | 28 | COC(=O)[C@@H]1Cc2c(ccc3nc(-c4cc(C)cc5nc(OC)cnc45)sc23)O1 [Example 156, (S)-methyl 2-(2-methoxy-7-methylquinoxalin-5-yl)-7,8-dihydrobenzofuro[5,4-d]thiazole-7-carboxylate]
